Results on 36 molecules are retold here after ChEMBL document CHEMBL6078629, “Targeting Protein Kinase, Membrane-Associated Tyrosine/Threonine 1 (PKMYT1) for Precision Cancer Therapy: From Discovery to Clinical Trial” (J Med Chem, 2024).

Data set [1] addresses T1, Membrane-associated tyrosine- and threonine-specific cdc2-inhibitory kinase (Homo sapiens, UniProt Q99640).
T1 sequence (Q99640 whole entry): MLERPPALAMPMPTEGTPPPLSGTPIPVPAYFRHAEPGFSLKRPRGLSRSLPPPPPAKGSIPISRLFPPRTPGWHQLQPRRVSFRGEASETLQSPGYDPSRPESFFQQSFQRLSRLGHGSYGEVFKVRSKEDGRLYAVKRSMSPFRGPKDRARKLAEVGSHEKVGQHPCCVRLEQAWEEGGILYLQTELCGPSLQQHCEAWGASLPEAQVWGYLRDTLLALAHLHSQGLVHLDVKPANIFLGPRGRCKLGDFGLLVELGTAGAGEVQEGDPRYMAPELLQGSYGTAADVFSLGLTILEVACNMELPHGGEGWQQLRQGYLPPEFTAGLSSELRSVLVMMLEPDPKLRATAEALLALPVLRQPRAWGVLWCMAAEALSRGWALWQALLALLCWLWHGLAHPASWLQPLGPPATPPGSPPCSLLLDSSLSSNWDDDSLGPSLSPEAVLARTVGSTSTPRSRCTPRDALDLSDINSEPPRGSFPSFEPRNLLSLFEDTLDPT
The data set is described as follows: Inhibition of PKMYT1 (unknown origin) by TR-FRET analysis.

Data set [2] deals with T1, Membrane-associated tyrosine- and threonine-specific cdc2-inhibitory kinase. The data set is described as follows: Inhibition of PKMYT1 (unknown origin).
The next data set concerns MIA PaCa-2. Description: Antiproliferative activity against human MIA PaCa-2 cells assessed as reduction in cell viability incubated for 48 hrs by MTT assay. In kind it is functional, cell-based. As to conditions: MIA PaCa-2, 48 h.
Data set [3] is described as follows: Half life in […] at 2 mg/kg, iv. It counts as ADME, organism-based. The note with it: in vivo.
Data set [4] in a line: Clearance in CD-1 mouse at 2 mg/kg, iv by LC-MS/MS analysis. It counts as ADME, organism-based. The note with it: in vivo.
Another data set concerns HCC1569. The data set is described as follows: Antiproliferative activity against human HCC1569 cells assessed as reduction in cell viability incubated for 48 hrs by MTT assay. In kind it is functional, cell-based. The note with it: HCC1569, 48 h.
Data set [5] addresses T1, Membrane-associated tyrosine- and threonine-specific cdc2-inhibitory kinase. The data set is described as follows: Binding affinity to PKMYT1 (unknown origin) assessed as dissociation constant.
For data set [6], the target named is T2, Wee1-like protein kinase (Homo sapiens, UniProt P30291). The data set is described as follows: Binding affinity to WEE1 (unknown origin) assessed as dissociation constant.
T2 sequence (P30291 whole entry): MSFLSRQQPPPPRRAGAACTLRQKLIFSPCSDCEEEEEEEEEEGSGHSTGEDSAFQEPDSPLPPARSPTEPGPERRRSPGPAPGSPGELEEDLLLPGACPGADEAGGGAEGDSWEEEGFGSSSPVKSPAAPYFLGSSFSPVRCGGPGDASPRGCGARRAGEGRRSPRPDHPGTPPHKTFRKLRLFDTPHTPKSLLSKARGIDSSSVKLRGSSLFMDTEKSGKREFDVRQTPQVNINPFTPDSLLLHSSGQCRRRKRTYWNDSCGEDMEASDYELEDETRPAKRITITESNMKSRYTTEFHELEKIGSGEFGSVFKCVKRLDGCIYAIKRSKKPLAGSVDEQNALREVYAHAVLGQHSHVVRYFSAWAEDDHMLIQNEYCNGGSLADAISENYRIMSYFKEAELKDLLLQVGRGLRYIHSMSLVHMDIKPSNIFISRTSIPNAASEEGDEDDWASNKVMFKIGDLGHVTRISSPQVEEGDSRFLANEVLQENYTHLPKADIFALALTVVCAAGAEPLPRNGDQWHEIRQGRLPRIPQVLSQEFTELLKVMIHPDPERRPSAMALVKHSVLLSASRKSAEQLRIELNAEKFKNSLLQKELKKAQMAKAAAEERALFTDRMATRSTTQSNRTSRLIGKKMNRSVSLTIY
For data set [7], the target named is T2, Wee1-like protein kinase. Description: Inhibition of WEE1 (unknown origin).
In data set [8] the target is T1, Membrane-associated tyrosine- and threonine-specific cdc2-inhibitory kinase. Description: Inhibition of PKMYT1 (unknown origin) extracted from insect cells by TR-FRET analysis. In kind it is cell-free, Insect cell.

Some results are limits rather than exact numbers.

Molecule `Cc1cc(Nc2ncc3cc(-c4c(Cl)cccc4Cl)c(=O)n(C)c3n2)ccc1F` returned an IC50 in [1] of 7.2 nM. For the molecule `Cc1nc2c3c(c(N)n(-c4c(C)ccc(O)c4C)c3n1)C(=O)NCC2`, the 50% inhibitory concentration (IC50) in [1] is ≤ 10 nM. As to `Cc1ccc(O)c(C)c1-c1c(N)c(C(N)=O)nc2cccnc12`, the half-maximal inhibitory concentration (IC50) in [2] is < 50 nM. On to `Cc1cc2c(C(N)=O)c(N)n(-c3c(C)c(O)cc(F)c3C)c2nc1C`, for which the IC50 in [2] is ≤ 200 nM; with MIA PaCa-2, 4320 nM. This molecule had a half-life in [3] of 0.56 h. In addition, in [4], the clearance was 94.4 mL/min/kg.

For the molecule `Cc1ccc(O)c(C)c1-n1c(N)c2c3c(ncnc31)-c1ccccc1NC2=O`, the IC50 in the data set with HCC1569 came out at 42 nM.

For the molecule `COc1ccnc2c(-c3c(C)ccc(O)c3C)c(N)c(C(N)=O)cc12`, in [2], the IC50 is < 50 nM. Regarding `Cc1ccc(O)c(C)c1-c1cc2cnc(Nc3ccccn3)nc2n(C)c1=O`, the values for the Kd (in data set [5]; on Wee1-like protein kinase [6]) were ≤ 10 nM and > 500 nM, respectively. With `CN(C)C(=O)NCc1cc(Nc2ncc3cc(-c4c(Cl)cccc4Cl)c(=O)n(C)c3n2)nnc1OCCN1CCS(=O)(=O)CC1`, the Kd in data set [5] is ≤ 10 nM; on Wee1-like protein kinase [6], > 500 nM.

Take `Cc1ccc(O)c(C)c1-n1nc(-c2nccs2)c(C(N)=O)c1N`: the IC50 in data set [2] is ≤ 10 nM; on Wee1-like protein kinase [7] it was 500 nM.

In the case of `Cc1ccc(O)c(C)c1-n1c2ncc(N3CCOCC3)nc2c2c(N)ncnc21`, the 50% inhibitory concentration (IC50) in [2] is < 100 nM; in the data set on HCC1569 it was < 5 nM. For the molecule `COc1ccc(Nc2ncc3cc(-c4c(C)ccc(O)c4C)c(=O)n(C)c3n2)nc1`, the equilibrium dissociation constant (Kd) was ≤ 10 nM in data set [5] and > 500 nM at Wee1-like protein kinase [6]. Molecule `Cc1ccc(O)c(C)c1-c1cnc2[nH]c(-c3ccc(N4CCN(C)CC4)nc3C)nc2c1` displayed an IC50 in data set [2] of 500 nM. Still for that read-out and setting: with `Cc1c(O)cccc1-c1c(N)c(C(N)=O)nc2cccnc12` the figure was < 50 nM; with `Cc1ccc(O)c(C)c1-c1c(N)c(C(N)=O)nc2nccnc12`, < 50 nM.

For the molecule `C[C@@H](O)CC[C@H](C)Oc1ccc(Nc2ncc3cc(-c4c(Cl)cccc4Cl)c(=O)n(C)c3n2)nn1`, the dissociation constant Kd in data set [5] is ≤ 10 nM; on Wee1-like protein kinase [6], > 500 nM. For `Cc1nc2c3c(c(N)n(-c4c(C)ccc(O)c4C)c3n1)C(=O)Nc1ccccc1-2`, the IC50 with HCC1569 came to 22 nM.

For the molecule `CSc1ncc2c(C(N)=O)c(N)n(-c3c(C)ccc(O)c3C)c2n1`, in data set [2], the IC50 was < 100 nM. With `Cc1ccc(-c2cc3c(Cl)c(-c4c(C)ccc(O)c4C)cnc3[nH]2)cn1`, the IC50 in data set [2] was ≤ 10 nM. Consider `Cc1ncc(-c2[nH]c3ncc(-c4c(C)ccc(O)c4C)nc3c2Cl)cn1`, for which the IC50 in [2] was ≤ 10 nM.

With `Cc1c(O)cccc1-c1c(N)c(C(N)=O)nc2cccc(C#N)c12`, in data set [2], the IC50 is < 50 nM. On to `CCOc1cc2ncc(C#N)c(Nc3ccc(F)c(Cl)c3)c2cc1NC(=O)/C=C\CN(C)C`, for which the IC50 in data set [8] worked out at 2900 nM. For the molecule `Cc1ccc(O)c(C)c1C1C(N)=C(C(N)=O)C2C=C(C(C)C)C=NN21` (stereo not given), the IC50 in data set [2] is < 10 nM. For the molecule `Cc1ccc(O)c(C)c1-n1c(N)c2c3c(ncnc31)C=C(c1cnn(C)c1)NC2=O`, in the data set with HCC1569, the IC50 came out at 8.6 nM. As to `Cc1ccc(O)c(C)c1-n1c(N)c(C(N)=O)c2cc(NC(N)=O)cnc21`, the IC50 in data set [2] is < 20 nM.

Turning to `Cc1c(O)cccc1-c1c(N)c(C(N)=O)cc2nccc(C#N)c12`, the IC50 in data set [2] was < 50 nM. Take `CC1=NN2C(C=C1C1CC1)C(C(N)=O)=C(N)C2c1c(C)ccc(O)c1C` (stereo not given): the IC50 in data set [2] was < 10 nM.

With `Cc1cc2c3c(N)ncnc3n(-c3c(C)ccc(O)c3C)c2nc1C`, the figures for the half-maximal inhibitory concentration (IC50) (in data set [2]; in the data set on HCC1569) were < 100 nM and < 5 nM, respectively. On to `CCn1ccc(Oc2ccc(Nc3ncc4cc(-c5c(Cl)cccc5Cl)c(=O)n(C)c4n3)nc2)n1`, for which the values for the Kd (in data set [5]; on Wee1-like protein kinase [6]) were ≤ 10 nM and > 500 nM, respectively. `COc1ccnc2c(-c3cccc(O)c3C)c(N)c(C(N)=O)cc12`: the IC50 in [2] is < 50 nM.

As to `Cc1ccc(O)c(C)c1-n1c(N)c(C(N)=O)c2c(=O)n(CF)ccc21`, the IC50 in [1] was found to be 1.5 nM.

On to `Cc1ccc(O)c(C)c1-n1c(N)c2c3c(c(C)ncc31)CCNC2=O`, for which the IC50 is 10 nM in data set [1] and > 10000 nM at Wee1-like protein kinase [7]. Turning to `CC1=CC2C(C(N)=O)=C(N)C(c3c(C)ccc(O)c3C)N2N=C1` (stereo not given), the IC50 in data set [2] was < 10 nM.

Take `Cc1ccc(O)c(C)c1-n1c(N)c2c3c(c(C)cnc31)CCNC2=O`: in data set [1], the IC50 was ≤ 10 nM.

`CC1=CC2C(C(N)=O)=C(N)C(c3c(C)ccc(O)c3C)N2N=C1C` (stereo not given): in data set [2], the IC50 is < 10 nM.

In the case of `Cc1cc2c(C(N)=O)c(N)n(-c3c(C)ccc(O)c3C)c2nc1C` [LUNRESERTIB], in the data set on MIA PaCa-2, the IC50 was found to be 9220 nM. Moreover, the half-life in [3] is 3.32 h. In data set [4], this molecule had a clearance of 46.5 mL/min/kg. As for `COc1cc2ncnc(Nc3cccc(Cl)c3)c2cc1OC` [TYRPHOSTIN AG-1478], inhibition in data set [8] was half-maximal at 7200 nM (IC50).
